US10485235B2, “Aryloxypyrimidinyl ethers as herbicides” (FMC Corporation, priority 2015, dated 2019)

Key:
Format in all cases: in vivo
[1] = system: ryegrass, Italian (Italian ryegrass, Lolium multiflorum); test: Test A postemergence, Italian ryegrass; settings: postemergence, 0 to 100 scale, 0 is no effect, 100 is complete control, approximately 10 days
From the text: (§1) Seeds of plant species selected from barnyardgrass (Echinochloa crus-galli), kochia (Kochia scoparia), ragweed (common ragweed, Ambrosia elatior), ryegrass, Italian (Italian ryegrass, Lolium multiflorum), foxtail, giant (giant foxtail, Setaria faberii), and pigweed (Amaranthus retroflexus), were planted into a blend of loam soil and sand and treated preemergence with a directed soil spray using test chemicals formulated in a non-phytotoxic solvent mixture which included a surfactant.
(§2) At the same time, plants selected from these weed species and also wheat (Triticum aestivum), corn (Zea mays), blackgrass (Alopecurus myosuroides), and galium (catchweed bedstraw, Galium aparine), were planted in pots containing the same blend of loam soil and sand and treated with postemergence applications of test chemicals formulated in the same manner. Plants ranged in height from 2 to 10 cm and were in the one- to two-leaf stage for the postemergence treatment. Treated plants and untreated controls were maintained in a greenhouse for approximately 10 days, after which time all treated plants were compared to untreated controls and visually evaluated for injury. Plant response ratings, summarized in Table A, are based on a 0 to 100 scale where 0 is no effect and 100 is complete control. A dash (—) response means no test result.

[2] = system: kochia (Kochia scoparia); test: Test A postemergence, kochia; settings: postemergence, 0 to 100 scale, 0 is no effect, 100 is complete control, approximately 10 days
From the text: as §1, §2

[3] = system: kochia (Kochia scoparia); test: Test A preemergence, kochia; settings: Preemergence, 0 to 100 scale (0 no effect, 100 complete control)
From the text: as §1, §2

[4] = system: pigweed (Amaranthus retroflexus); test: Test A preemergence, pigweed; settings: Preemergence, 0 to 100 scale (0 no effect, 100 complete control)
From the text: as §1, §2

[5] = system: wheat (Triticum aestivum); test: Test A postemergence, wheat; settings: postemergence, 0 to 100 scale, 0 is no effect, 100 is complete control, approximately 10 days
From the text: as §1, §2

[6] = system: barnyardgrass (Echinochloa crus-galli); test: Test B flooded paddy test, barnyardgrass; settings: 250 g ai/ha, Flood; visual rating after 13 to 15 days; scale 0 to 100, 0 is no effect, 100 is complete control
Procedure: (§3) Plant species in the flooded paddy test selected from rice (Oryza sativa), sedge, umbrella (small-flower umbrella sedge, Cyperus difformis), ducksalad (Heteranthera limosa), and barnyardgrass (Echinochloa crus-galli) were grown to the 2-leaf stage for testing. At time of treatment, test pots were flooded to 3 cm above the soil surface, treated by application of test compounds directly to the paddy water, and then maintained at that water depth for the duration of the test. Treated plants and controls were maintained in a greenhouse for 13 to 15 days, after which time all species were compared to controls and visually evaluated. Plant response ratings, summarized in Table B, are based on a scale of 0 to 100 where 0 is no effect and 100 is complete control. A dash (—) response means no test result.

[7] = system: corn (Zea mays); test: Test A postemergence, corn; settings: postemergence, 0 to 100 scale, 0 is no effect, 100 is complete control, approximately 10 days
From the text: as §1, §2

[8] = system: pigweed (Amaranthus retroflexus); test: Test A postemergence, pigweed; settings: postemergence, 0 to 100 scale, 0 is no effect, 100 is complete control, approximately 10 days
From the text: as §1, §2

[9] = system: ryegrass, Italian (Italian ryegrass, Lolium multiflorum); test: Test A preemergence, Italian ryegrass; settings: Preemergence, 0 to 100 scale (0 no effect, 100 complete control)
From the text: as §1, §2

[10] = system: barnyardgrass (Echinochloa crus-galli); test: Test A postemergence, barnyardgrass; settings: postemergence, 0 to 100 scale, 0 is no effect, 100 is complete control, approximately 10 days
From the text: as §1, §2

[11] = system: galium (catchweed bedstraw, Galium aparine); test: Test A postemergence, galium; settings: postemergence, 0 to 100 scale, 0 is no effect, 100 is complete control, approximately 10 days
From the text: as §1, §2

[12] = system: sedge, umbrella (small-flower umbrella sedge, Cyperus difformis); test: Test B flooded paddy test, umbrella sedge; settings: 250 g ai/ha, Flood; visual rating after 13 to 15 days; scale 0 to 100, 0 is no effect, 100 is complete control
Procedure: as §3

[13] = system: blackgrass (Alopecurus myosuroides); test: Test A postemergence, blackgrass; settings: postemergence, 0 to 100 scale, 0 is no effect, 100 is complete control, approximately 10 days
From the text: as §1, §2

[14] = system: ragweed (common ragweed, Ambrosia elatior); test: Test A postemergence, ragweed; settings: postemergence, 0 to 100 scale, 0 is no effect, 100 is complete control, approximately 10 days
From the text: as §1, §2

[15] = system: barnyardgrass (Echinochloa crus-galli); test: Test A preemergence, barnyardgrass; settings: Preemergence, 0 to 100 scale (0 no effect, 100 complete control)
From the text: as §1, §2

[16] = system: rice (Oryza sativa); test: Test B flooded paddy test, rice; settings: 250 g ai/ha, Flood; visual rating after 13 to 15 days; scale 0 to 100, 0 is no effect, 100 is complete control
Procedure: as §3

[17] = system: ducksalad (Heteranthera limosa); test: Test B flooded paddy test, ducksalad; settings: 250 g ai/ha, Flood; visual rating after 13 to 15 days; scale 0 to 100, 0 is no effect, 100 is complete control
Procedure: as §3

[18] = system: foxtail, giant (giant foxtail, Setaria faberii); test: Test A postemergence, giant foxtail; settings: postemergence, 0 to 100 scale, 0 is no effect, 100 is complete control, approximately 10 days
From the text: as §1, §2

[19] = system: foxtail, giant (giant foxtail, Setaria faberii); test: Test A preemergence, giant foxtail; settings: Preemergence, 0 to 100 scale (0 no effect, 100 complete control)
From the text: as §1, §2

[20] = system: ragweed (common ragweed, Ambrosia elatior); test: Test A preemergence, ragweed; settings: Preemergence, 0 to 100 scale (0 no effect, 100 complete control)
From the text: as §1, §2

SMILES	Plant response rating, Ryegrass, Italian ([1]; 125 g ai/ha)	Plant response rating, Kochia ([3]; 125 g ai/ha)	Plant response rating, Pigweed ([4]; 125 g ai/ha)	Plant response rating, Wheat ([5]; 125 g ai/ha)	Plant response rating, Barnyardgrass [6]	Plant response rating, Corn ([7]; 125 g ai/ha)	Plant response rating, Pigweed ([8]; 125 g ai/ha)	Plant response rating, Ryegrass, Italian ([9]; 125 g ai/ha)	Plant response rating, Barnyardgrass ([10]; 125 g ai/ha)	Plant response rating, Galium ([11]; 125 g ai/ha)	Plant response rating, Sedge, Umbrella [12]	Plant response rating, Blackgrass ([13]; 125 g ai/ha)	Plant response rating, Ragweed ([14]; 125 g ai/ha)	Plant response rating, Barnyardgrass ([15]; 125 g ai/ha)	Plant response rating, Rice [16]	Plant response rating, Ducksalad [17]	Plant response rating, Foxtail, Giant ([18]; 125 g ai/ha)	Plant response rating, Foxtail, Giant ([19]; 125 g ai/ha)	Plant response rating, Ragweed ([20]; 125 g ai/ha)	Plant response rating, Ryegrass, Italian ([1]; 31 g ai/ha)	other results
N#Cc1cccc(Oc2ncc(Cl)cn2)c1OCc1ccccc1Cl [Compound 2]	0	0	0	0	0	0	0	0	0	20	0	0	0	0	0	0	0	10	0		Plant response rating, Ryegrass, Italian ([1]; 500 g ai/ha): 0; Plant response rating, Kochia ([2]; 125 g ai/ha): 30; Plant response rating, Kochia ([2]; 500 g ai/ha): 40; Plant response rating, Kochia ([3]; 500 g ai/ha): 0; Plant response rating, Pigweed ([4]; 500 g ai/ha): 20; Plant response rating, Wheat ([5]; 500 g ai/ha): 0; Plant response rating, Corn ([7]; 500 g ai/ha): 30; Plant response rating, Pigweed ([8]; 500 g ai/ha): 10; Plant response rating, Ryegrass, Italian ([9]; 500 g ai/ha): 0; Plant response rating, Barnyardgrass ([10]; 500 g ai/ha): 10; Plant response rating, Galium ([11]; 500 g ai/ha): 50; Plant response rating, Blackgrass ([13]; 500 g ai/ha): 0; Plant response rating, Ragweed ([14]; 500 g ai/ha): 10; Plant response rating, Barnyardgrass ([15]; 500 g ai/ha): 10; Plant response rating, Foxtail, Giant ([18]; 500 g ai/ha): 10; Plant response rating, Foxtail, Giant ([19]; 500 g ai/ha): 70; Plant response rating, Ragweed ([20]; 500 g ai/ha): 0
Cc1cccc(Oc2ncc(Cl)cn2)c1OC/C=C/C(F)(F)F [Compound 58]	0	0	100	0	0	10	30	0	70	30	100	30	0	90	15	100	70	90	0	0	Plant response rating, Kochia ([3]; 31 g ai/ha): 0; Plant response rating, Pigweed ([4]; 31 g ai/ha): 0; Plant response rating, Wheat ([5]; 31 g ai/ha): 0; Plant response rating, Corn ([7]; 31 g ai/ha): 0; Plant response rating, Pigweed ([8]; 31 g ai/ha): 10; Plant response rating, Ryegrass, Italian ([9]; 31 g ai/ha): 0; Plant response rating, Barnyardgrass ([10]; 31 g ai/ha): 50; Plant response rating, Galium ([11]; 31 g ai/ha): 0; Plant response rating, Blackgrass ([13]; 31 g ai/ha): 0; Plant response rating, Ragweed ([14]; 31 g ai/ha): 0; Plant response rating, Barnyardgrass ([15]; 31 g ai/ha): 40; Plant response rating, Foxtail, Giant ([18]; 31 g ai/ha): 20; Plant response rating, Foxtail, Giant ([19]; 31 g ai/ha): 40; Plant response rating, Ragweed ([20]; 31 g ai/ha): 0
Cc1cccc(Oc2ncc(Cl)cn2)c1OC/C=C/Cl [Compound 59]	0	100	100	0	20	10	70	0	100	30	90	50	0	100	0	100	50	50	0	0	Plant response rating, Kochia ([3]; 31 g ai/ha): 60; Plant response rating, Pigweed ([4]; 31 g ai/ha): 20; Plant response rating, Wheat ([5]; 31 g ai/ha): 0; Plant response rating, Corn ([7]; 31 g ai/ha): 0; Plant response rating, Pigweed ([8]; 31 g ai/ha): 40; Plant response rating, Ryegrass, Italian ([9]; 31 g ai/ha): 0; Plant response rating, Barnyardgrass ([10]; 31 g ai/ha): 40; Plant response rating, Galium ([11]; 31 g ai/ha): 90; Plant response rating, Blackgrass ([13]; 31 g ai/ha): 0; Plant response rating, Ragweed ([14]; 31 g ai/ha): 0; Plant response rating, Barnyardgrass ([15]; 31 g ai/ha): 30; Plant response rating, Foxtail, Giant ([18]; 31 g ai/ha): 20; Plant response rating, Foxtail, Giant ([19]; 31 g ai/ha): 10; Plant response rating, Ragweed ([20]; 31 g ai/ha): 0
